What is called Ki is the dissociation constant of the complex between target and ligand, obtained from inhibition or displacement. Usually IC50 stands for the concentration that gives 50% inhibition.

For assay [1], the target named is PCP receptor. Kind of assay: [3H]TCP radioreceptor assay (binding to PCP recognition sites). Also noted: species or system rat (male Sprague-Dawley, whole brain). The following applies: [3H]TCP approx. 1 nM, rat brain membranes, mean of at least two determinations. A digest of the protocol: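 Rat whole-brain membranes (Tris-HCl, pH 7.7), 0.5 mg protein/tube, incubated with ~1 nM [3H]TCP for 25 min at room temperature; non-specific binding defined with 100 μM PCP. Bound ligand collected by filtration and counted by scintillation; Ki from at least two determinations, or % inhibition at 10 μM.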

For assay [2], the system named is cultured cortical neurons. Nature of the assay: Antagonism of NMDA-induced neurotoxicity in cultured cortical neurons (LDH release). The format is cell-based, mouse (Swiss-Webster). The conditions noted are these: 500 μM NMDA, 30 min exposure, LDH 24 h later. Here is the method:
Antagonism of NMDA-induced Neurotoxicity in Cultured Neurons
Preparation of Cultured Cortical Neurons
Pregnant, Swiss-Webster mice were obtained from Taconic Farms (Germantown, New York) and sacrificed 16 days post conception. Fetuses were removed and placed in a sterile dish containing Hank's balanced salt solution (HBSS), pH 7.4. Brain cortices were dissected, meninges were removed, the tissue was minced and placed into a solution of HBSS containing 0.25% (w/v) trypsin at 37° C. for 15 minutes. Tissue was then triturated with a sterile pasteur pipet, diluted with minimal essential media (Gibco 330-1430), pH 7.4, supplemented with 10% horse serum, 10% fetal calf serum, 2 mM 1-glutamine, 21 mM d-glucose, 2.2 g/L sodium bicarbonate, 1000 U/mL penicillin, and 1,000 μg/mL streptomycin. Cells were plated onto Falcon primaria 96 well plates at a final density of 50,000 cells/well and incubated at 37 °C in the presence of 5% (v/v) carbon dioxide. After 5 days, plating media was replaced with maintenance media containing minimal essential media (Gibco 330-1430), pH 7.4, supplemented with 10% horse serum, […], 21 mM d-glucose, 2.2 g/L sodium bicarbonate, 1,000 U/mL penicillin, 1,000 μg/mL streptomycin, and 10 μM cytosine arabinoside. On days 7 and 10, media was replaced with maintenance media as above lacking the cytosine arabinoside. Experiments were conducted on day 13.
Neuroprotection Assessment
Day 13 cultured cortical neurons were washed twice with minimal essential media, pH 7.4 and then exposed for 30 minutes to 500 μM N-methyl-D-aspartic acid (NMDA) with or without varying concentrations of test agents. […] MK-801 and test agents were prepared in minimal essential media supplemented with 21 mM d-glucose and 2.2 g/L sodium bicarbonate (MEM). After 30 minutes, media was replaced with MEM alone. Exposure of neurons to test agents was limited to the NMDA treatment period. Twenty-four hours after removal of NMDA, an aliquot of media from each well was removed for assessment of cell injury by determining lactate dehydrogenase (LDH) activity by the method of Wroblewski and LaDue Proc. Soc. Exp. Biol. Med. 1955, 90, 210-213. The results are expressed as an IC50 (in nM) value (concentration causing 50% inhibition) for the antagonism of NMDA--inducedneurotoxicity. Table 3 summarizes the results obtained from the testing of representative compounds of the invention in the [^3 H]TCP radioreceptor assay as well as in the antagonism of NMDA-induced neurotoxicity in cultured neurons.

Take `CC1C2c3ccccc3C(c3cccc[n+]32)C1(c1ccoc1)c1ccoc1` (single isomer, unassigned) [181(c), 6,11-ethano-12,12-di(3-furyl)-13-methyl-6,11-dihydrobenzo[b]quinolizinium hexafluorophosphate]: the Ki in assay [1] came to 6.36 nM. This molecule came in with an IC50 in assay [2] of 11.4 nM.
As for `CC1C2c3ccccc3C(c3cccc[n+]32)C1(c1ccoc1)c1ccoc1` (single isomer, unassigned) [181(d), 6,11-ethano-12,12-di(3-furyl)-13-methyl-6,11-dihydrobenzo[b]quinolizinium hexafluorophosphate], in assay [1], the affinity corresponds to a Ki of 6.15 nM. The IC50 in assay [2] was determined as 55 nM.
Molecule `[O-][Cl+3]([O-])([O-])[O-].c1ccc2c(c1)C1CC(c3ccoc3)(c3ccn[nH]3)C2c2cccc[n+]21` (single isomer, unassigned) [185(a), 6,11-ethano-12-(3-furyl)-12-(5-pyrazolyl]-6,11-dihydrobenzo[b]quinolizinium perchlorate] returned a Ki in assay [1] of 4.55 nM. In addition, the IC50 in assay [2] (Mus musculus, Cortical neurone) worked out at 32.6 nM.
`[O-][Cl+3]([O-])([O-])[O-].c1ccc2c(c1)C1CC(c3ccoc3)(c3ccn[nH]3)C2c2cccc[n+]21` (single isomer, unassigned) [185(b), 6,11-ethano-12-(3-furyl)-12-(5-pyrazolyl]-6,11-dihydrobenzo[b]quinolizinium perchlorate] returned a Ki in assay [1] of 6.29 nM. In addition, the IC50 in assay [2] was found to be 53 nM.
For the molecule `c1ccc2c(c1)CC1C3c4ccccc4C(c4cccc[n+]43)C21c1ccoc1` (stereo not shown) [6(d), 6.11[[2',3']-3'-(3-furyl)indanyl]6,11-dihydrobenzo[b]quinolizinium chloride], in assay [1], the inhibition constant (Ki) came out at 1.2 nM. The IC50 in assay [2] (Mus musculus, Cortical neurone) came to 244 nM.
As for `c1ccc2c(c1)C1C3CCc4occc4C3(c3ccoc3)C2c2cccc[n+]21` (stereo not shown) [7(b), 6,11[[5',4']-4'-(3-furyl)-4',5',6',7'-tetrahydrobenzofuryl]6,11-dihydrobenzo[b]quinolizinium hexafluorophosphate], affinity in assay [1] was put at a Ki of 1.38 nM. Also, the IC50 in assay [2] (Mus musculus, Cortical neurone) turned out to be 7.6 nM.
Molecule `CCOC1(c2ccoc2)CC2c3ccccc3C1c1cccc[n+]12` (stereo not shown) [11(F), 6,11-ethano-12-(3-furyl)-12-ethoxy-6,11-dihydrobenzo[b]quinolizinium chloride] showed a Ki in assay [1] of 73 nM. This molecule registered an IC50 in assay [2] (Mus musculus, Cortical neurone) of 2550 nM.
In assay [1], `CCOC1(c2ccoc2)CC2c3ccccc3C1c1cccc[n+]12` (stereo not shown) [11(g), 6,11-ethano-12-(3-furyl)-12-ethoxy-6,11-dihydrobenzo[b]quinolizinium chloride] gave an inhibitory constant (Ki) of 18 nM. The same molecule came in with an IC50 in assay [2] of 2000 nM.
Taken in the same sequence, the figures for `c1ccc(C2(c3ccccc3)CC3c4ccccc4C2c2cccc[n+]23)cc1` (stereo not shown) [17(b), 6,11-ethano-12,12-diphenyl-6,11-dihydrobenzo[b]quinolizinium chloride] were 8.18 nM and 197 nM.
Regarding `CC12CC(c3ccccc3)(c3ccccc3)C(c3ccccc31)c1cccc[n+]12` (stereo not shown) [19(b), 6,11-ethano-12,12-diphenyl-6-methyl-6,11-dihydro-benzo[b]quinolizinium. Chloride], the affinity in assay [1] corresponds to a Ki of 6.8 nM. Also, the midpoint of inhibition in assay [2] (Mus musculus, Cortical neurone), the IC50, lay at 102 nM.
In turn, `CC12CC(c3cccs3)(c3cccs3)C(c3ccccc31)c1cccc[n+]12` (stereo not shown) [47(d), 6,11-ethano-12,12-di(2-thienyl)-6-methyl-6,11-dihydrobenzo[b]quinoliziniumchloride] returned a Ki in assay [1] of 2.11 nM. Moreover, in assay [2] (Mus musculus, Cortical neurone), it took 40 nM to reach half-maximal inhibition (IC50).
The molecule `c1csc(C2(c3cccs3)CC3c4ccccc4C2c2cccc[n+]23)c1` (stereo not shown) [48(b), 6,11-ethano-12,12-di(2-thienyl)-6,11-dihydrobenzo[b]quinolizinium chloride] displayed a Ki in assay [1] of 2.08 nM. Further, in assay [2], the IC50 worked out at 23 nM.
For `CC12CC(c3ccoc3)(c3ccoc3)C(c3ccccc31)c1cccc[n+]12` (stereo not shown) [50(b), 6,11ethano-12,12-di(3-furanyl)-6-methyl-6,11-dihydrobenzo[b]quinolizinilium chloride], the affinity in assay [1], expressed as Ki, was 1.24 nM. In assay [2] (Mus musculus, Cortical neurone), this molecule registered an IC50 of 22 nM.
In the case of `CCOC1(c2ccoc2)CC2(C)c3ccccc3C1c1cccc[n+]12.[O-][Cl+3]([O-])([O-])[O-]` (stereo not shown) [Example 13(a), 6,11-ethano-12-(3-furyl)-12-ethoxy-6-methyl-6,11-dihydrobenzo[b]quinolizinium perchlorate], affinity in assay [1] was put at a Ki of 19 nM.
With `CC1C2c3ccccc3C(c3cccc[n+]32)C1(c1ccccc1)c1ccccc1` (stereo not shown) [Example 18, 6,11-ethanol-12,12-diphenyl-13-methyl-6,11-dihydrobenzo[b]quinolizinium perchlorate], the Ki in assay [1] worked out at 19.5 nM.
Take `CC12CC(c3ccccc3)(c3ccccc3)C(c3ccccc31)c1cccc[n+]12` (stereo not shown) [Example 21, 6,11-ethano-12,12-diphenyl-6-methyl-6,11-dihydrobenzo[b]quinolizinium chloride hydrate]: in assay [1] (hydrate), the inhibitory constant (Ki) was found to be 13 nM.
For `COc1cccc2c1C1c3cccc[n+]3C2CC1(c1ccccc1)c1ccccc1` (stereo not shown) [Example 26, 6,11-ethano-12,12-diphenyl-10-methoxy-6,11-dihydrobenzo[b]quinolizinium chloride], the inhibitory constant (Ki) in assay [1] amounted to 32.7 nM.
Regarding `CCCCCCCC(=O)Oc1cccc2c1C1c3cccc[n+]3C2CC1(c1ccoc1)c1ccoc1` (stereo not shown) [Example 165, 6,11-ethano-12,12-di(3-furyl)-10-octanoyloxy-6,11-dihydrobenzo[b]quinolizinium chloride], in assay [1], affinity was put at a Ki of 31.3 nM.
In the case of `CCOC(=O)CCC(=O)Oc1cccc2c1C1c3cccc[n+]3C2CC1(c1ccoc1)c1ccoc1` (stereo not shown) [Example 166, 6,11-ethano-12,12-di(3-furyl)-10-(3-ethoxycarbonyl)propionyloxy-6,11-dihydrobenzo-[b]quinolizinium chloride], the inhibition constant Ki in assay [1] is 61.1 nM.
Take `Oc1ccc[n+]2c1C1c3ccccc3C2CC1(c1ccoc1)c1ccoc1` (stereo not shown) [Example 168(c), 6,11-ethano-12,12-di(3-furyl)-1-hydroxy-6,11-dihydrobenzo[b]quinolizinium chloride]: the affinity in assay [1], expressed as Ki, was 306 nM.
`CC(=O)Oc1cccc2c1C1c3cccc[n+]3C2CC1(c1ccoc1)c1ccoc1` (stereo not shown) [Example 169, 6,11-ethano-12,12-di(3-furyl)-10-acetyloxy-6,11-dihydrobenzo-[b]quinolizinium chloride]: the affinity in assay [1], expressed as Ki, was 3.58 nM.
Still for that read-out and setting: in the case of `CC(=O)Oc1ccc[n+]2c1C1c3ccccc3C2CC1(c1ccoc1)c1ccoc1` (stereo not shown) [Example 170, 6,11-ethano-12,12-di(3-furyl)-1-acetyloxy-6,11-dihydrobenzo-[b]quinolizinium chloride] it was 232 nM; in that of `CCCCCCCCOc1cccc2c1C1c3cccc[n+]3C2CC1(c1ccoc1)c1ccoc1.[O-][Cl+3]([O-])([O-])[O-]` (stereo not shown) [Example 172, 6,11-ethano-12,12-di(3-furyl)-10-octyloxy-6,11-dihydrobenzo[b]quinolizinium perchlorate], 3380 nM; in that of `CC(C)(C)C(=O)Oc1cccc2c1C1c3cccc[n+]3C2CC1(c1ccoc1)c1ccoc1` (stereo not shown) [Example 174, 6,11-ethano-12,12-di(3-furyl)-10-trimethylacetyloxy-6,11dihydrobenzo-[b]quinolizinium chloride], 23.7 nM.
Consider `Oc1cccc(C2(c3cccc(O)c3)CC3c4ccccc4C2c2cccc[n+]23)c1.[O-][Cl+3]([O-])([O-])[O-]` (stereo not shown) [Example 177, 6,11-ethano-12,12-di(m-hydroxyphenyl)-6,11-dihydrobenzo[b]quinolizinium perchlorate], for which the inhibitory constant (Ki) in assay [1] stood at 13.8 nM.
As to `Oc1ccc2[n+](c1)C1CC(c3ccoc3)(c3ccoc3)C2c2ccccc21` (stereo not shown) [Example 191(f), 12,12-di(3-furyl)-3-hydroxy-6,11-ethano-6,11-dihydrobenzo[b]quinolizinium chloride], affinity in assay [1] was put at a Ki of 1530 nM.
Molecule `Oc1cccc2c1C1c3cccc[n+]3C2CC1(c1ccoc1)c1ccn[nH]1` (stereo not shown) [Example 200, 6,11-ethano-12-(3-furyl)-12-(pyrazol-5-yl)-10-hydroxy-6,11-dihydro-benzo[b]quinolizinium chloride] showed a Ki in assay [1] of 11.5 nM.

(Values after US5554620A, “Substituted 6,11-ethano-6,11-dihydrobenzo[b] quinolizinium salts and compositions and methods of use thereof” (Sterling Winthrop Inc., priority 1994, dated 1996).)
